Activity data for 16 molecules are collected here from ChEMBL document CHEMBL4043249, “Discovery of potent antiviral (HSV-1) quinazolinones and initial structure-activity relationship studies” (Bioorg Med Chem Lett, 2017).

Structures are written as SMILES. Activity calls are given as the source filed them. The rule behind the calls is not given here.

For data set [1], the system named is Human alphaherpesvirus 1. Briefly: Anti-viral activity against Herpes simplex virus-1 harboring EGFP infected in iPSC-derived neurons assessed as reduction in ICP0 expression at 50 uM treated 2 hrs post infection measured after 72 hrs by Alexa fluor 488 staining based flow cytometric analysis. It is filed as functional.
Data set [2] concerns Human alphaherpesvirus 1. Description: Anti-viral activity against Herpes simplex virus-1 harboring EGFP infected in iPSC-derived neurons assessed as reduction in ICP0 expression treated 2 hrs post infection measured after 72 hrs by Alexa fluor 488 staining based flow cytometric analysis. Format: functional. (A flow cytometer gives signals particle by particle.)
A short description of data set [3]: Cytotoxicity against human induced pluripotent stem cell-derived neurons assessed as effect on cell viability after 24 hrs by live/dead fixable aqua dead cell staining based assay. To be noted: induced pluripotent stem cell-derived neuron.
Data set [4] can be described thus: Cytotoxicity against human induced pluripotent stem cell-derived neurons assessed as morphological changes after 48 to 72 hrs by live/dead fixable aqua dead cell staining based assay. As to conditions: induced pluripotent stem cell-derived neuron.
For data set [5], the system named is Human alphaherpesvirus 1. Description: Anti-viral activity against Herpes simplex virus-1 harboring EGFP infected in iPSC-derived neurons assessed as reduction in ICP0 expression at 10 to 50 uM treated 2 hrs post infection measured after 72 hrs by Alexa fluor 488 staining based flow cytometric analysis. Format: functional.
Data set [6] concerns Human alphaherpesvirus 1. Briefly: Anti-viral activity against Herpes simplex virus-1 harboring EGFP infected in iPSC-derived neurons assessed as viable cells at 10 mM treated 2 hrs post infection measured after 72 hrs by Alexa fluor 488 staining based flow cytometric analysis (reference value: 17.8%). It is filed as functional.
The subject of data set [7] is Human alphaherpesvirus 1. Briefly: Anti-viral activity against Herpes simplex virus-1 harboring EGFP infected in iPSC-derived neurons assessed as early apoptotic cells at 10 mM treated 2 hrs post infection measured after 72 hrs by Alexa fluor 488 staining based flow cytometric analysis (reference value: 13.2%). Format: functional.
In data set [8] the test system is Human alphaherpesvirus 1. Briefly: Anti-viral activity against Herpes simplex virus-1 harboring EGFP infected in iPSC-derived neurons assessed as late apoptotic cells at 10 mM treated 2 hrs post infection measured after 72 hrs by Alexa fluor 488 staining based flow cytometric analysis (reference value: 65.7%). It is filed as functional.
Data set [9] has as its system Human alphaherpesvirus 1. Briefly: Anti-viral activity against Herpes simplex virus-1 harboring EGFP infected in iPSC-derived neurons assessed as necrotic cells at 10 mM treated 2 hrs post infection measured after 72 hrs by Alexa fluor 488 staining based flow cytometric analysis (reference value: 3.33%). Format: functional.
Data set [10] has as its system Human alphaherpesvirus 1. Description: Anti-viral activity against Herpes simplex virus-1 harboring EGFP infected in iPSC-derived neurons assessed as viable cells at 50 mM treated 2 hrs post infection measured after 72 hrs by Alexa fluor 488 staining based flow cytometric analysis (reference value: 17.8%). It is filed as functional.
For data set [11], the system named is Human alphaherpesvirus 1. Briefly: Anti-viral activity against Herpes simplex virus-1 harboring EGFP infected in iPSC-derived neurons assessed as early apoptotic cells at 50 mM treated 2 hrs post infection measured after 72 hrs by Alexa fluor 488 staining based flow cytometric analysis (reference value: 13.2%). It is filed as functional.
The subject of data set [12] is Human alphaherpesvirus 1. Description: Anti-viral activity against Herpes simplex virus-1 harboring EGFP infected in iPSC-derived neurons assessed as late apoptotic cells at 50 mM treated 2 hrs post infection measured after 72 hrs by Alexa fluor 488 staining based flow cytometric analysis (reference value: 65.7%). Format: functional.
Data set [13] has as its system Human alphaherpesvirus 1. Description: Anti-viral activity against Herpes simplex virus-1 harboring EGFP infected in iPSC-derived neurons assessed as necrotic cells at 50 mM treated 2 hrs post infection measured after 72 hrs by Alexa fluor 488 staining based flow cytometric analysis (reference value: 3.33%). It is filed as functional.
For a further data set, the system named is Vero. Briefly: Cytotoxicity against African green monkey Vero cells assessed as effect on cell viability at 10 to 1000000 nM. Format: cell-based. To be noted: chlorocebus sabaeus, 1000 µM.
The subject of another data set is NSC. Description: Cytotoxicity against NSC (unknown origin) assessed as effect on cell viability at 10 to 1000000 nM. Format: cell-based. As to conditions: 1000 µM.
The next data set relates to Neuron. Description: Cytotoxicity against neurons (unknown origin) assessed as effect on cell viability at 10 to 1000000 nM. Format: cell-based. To be noted: 1000 µM.
Data set [14] deals with Human alphaherpesvirus 1. Briefly: Anti-viral activity against Herpes simplex virus-1 harboring EGFP infected in iPSC-derived neurons assessed as reduction in ICP0 expression at 10 uM treated 2 hrs post infection measured after 72 hrs by Alexa fluor 488 staining based flow cytometric analysis. Format: functional.
Data set [15] in a line: Induction of heterochromatinization in Induced pluripotent stem cell-derived neuron (unknown origin) infected with HSV-1 assessed as increase in H3K27 trimethylation at ICP4 gene by chromatin immunoprecipitation based RT-PCR analysis.

`COc1ccc(-n2c(-c3ccc(OCc4ccccc4)cc3)nc3ccccc3c2=O)cc1`: the outcome in the data set on Human alphaherpesvirus 1 [1] and with Human alphaherpesvirus 1 [2] was Active. Also, the Activity result in [3] and in data set [4] was “Toxic” each time.

In the case of `COc1ccc(-n2c(-c3ccc(Nc4ccccc4)cc3)nc3ccccc3c2=O)cc1`, in the data set with Human alphaherpesvirus 1 [5], the result was inactive.

Consider `COc1ccc(-n2c(-c3ccc(OCc4ccc(Br)cc4)cc3)nc3ccccc3c2=O)cc1`, for which the Activity in the data set on Human alphaherpesvirus 1 [6] came to 91.6%; with Human alphaherpesvirus 1 [7] it was 3.18%; in the data set on Human alphaherpesvirus 1 [8], 4.64%; with Human alphaherpesvirus 1 [9], 0.6%; in the data set on Human alphaherpesvirus 1 [10], 88.9%; in the data set on Human alphaherpesvirus 1 [11] it was 3.36%. In addition, the Activity is 5.03% in the data set with Human alphaherpesvirus 1 [12]; 2.91% in the data set on Human alphaherpesvirus 1 [13]; “Toxic” in the data set with Vero; “Toxic” in the data set on NSC; “Toxic” in the data set with Neuron. In addition, the outcome in the data set on Human alphaherpesvirus 1 [5] was Active.

For the molecule `Nc1nc2c(ncn2COCCO)c(=O)[nH]1` [ACYCLOVIR], the Activity came out at 89.6% in the data set with Human alphaherpesvirus 1 [6]; 7.92% in the data set with Human alphaherpesvirus 1 [7]; 1.36% in the data set with Human alphaherpesvirus 1 [8]; 1.13% in the data set on Human alphaherpesvirus 1 [9]; 92.6% in the data set on Human alphaherpesvirus 1 [10]; 6.22% with Human alphaherpesvirus 1 [11]. Besides, the Activity with Human alphaherpesvirus 1 [12] was found to be 0.44%; in the data set on Human alphaherpesvirus 1 [13], 0.76%.

Consider `COc1ccc(-n2c(-c3ccc(Oc4ccc(OC(F)(F)F)cc4)cc3)nc3ccccc3c2=O)cc1`, for which the result in the data set on Human alphaherpesvirus 1 [5] was inactive.

Regarding `O=c1c2ccccc2nc(-c2ccc(OCc3cccc(Br)c3)cc2)n1-c1ccc(Br)cc1`, the outcome with Human alphaherpesvirus 1 [5] was Active.

`COc1ccc(-n2c(-c3ccc(OCc4cccc(Br)c4)cc3)nc3ccccc3c2=O)cc1`: the Activity in the data set with Human alphaherpesvirus 1 [6] was determined as 90.1%; in the data set on Human alphaherpesvirus 1 [7] it was 3.24%; with Human alphaherpesvirus 1 [8], 6.1%; in the data set with Human alphaherpesvirus 1 [9], 0.59%; in the data set on Human alphaherpesvirus 1 [10], 82%; in the data set on Human alphaherpesvirus 1 [11], 3.76%. Also, the Activity in the data set on Human alphaherpesvirus 1 [12] is reported as 9.96%; with Human alphaherpesvirus 1 [13], 4.31%; with Vero, “Toxic”; with NSC, “Toxic”; with Neuron, “Toxic”. Further, the result with Human alphaherpesvirus 1 [5] was Active.

As to `COc1ccc(-n2c(-c3ccc(Oc4ccc(Cl)cc4)cc3)nc3ccccc3c2=O)cc1`, the outcome in the data set with Human alphaherpesvirus 1 [5] was inactive.

Regarding `COc1ccc(-c2nc3ccccc3c(=O)n2-c2ccc(Br)cc2)cc1`, in the data set with Human alphaherpesvirus 1 [2], the result was Active.

Turning to `COc1ccc(Oc2ccc(-c3nc4ccccc4c(=O)n3-c3ccc(OC)cc3)cc2)cc1`, in the data set with Human alphaherpesvirus 1 [5], the outcome was inactive.

As for `O=c1c2ccccc2nc(-c2ccc(OCc3ccccc3)cc2)n1-c1ccc(Br)cc1`, the result in the data set on Human alphaherpesvirus 1 [1], with Human alphaherpesvirus 1 [14] and with Human alphaherpesvirus 1 [2] was Active. In addition, the results for the Activity entry in data set [3], in [4] and in [15] were “Toxic”, “Toxic” and “Non-Toxic”, respectively.

For `O=c1c2ccccc2nc(-c2ccc(Br)cc2)n1-c1ccc(Br)cc1`, the result in the data set with Human alphaherpesvirus 1 [2] was Active.

For the molecule `CCCCCCn1c(-c2ccc(OCc3ccccc3)cc2)nc2ccccc2c1=O`, in the data set with Human alphaherpesvirus 1 [2], the outcome was inactive.

As to `O=c1c2ccccc2nc(-c2ccc(OCc3ccc(Br)cc3)cc2)n1-c1ccc(Br)cc1`, in the data set on Human alphaherpesvirus 1 [5], the result was Active.

`COc1ccc(-n2c(-c3ccc(Oc4ccccc4)cc3)nc3ccccc3c2=O)cc1`: the outcome with Human alphaherpesvirus 1 [5] was inactive.

On to `O=c1[nH]c(-c2ccc(OCc3ccccc3)cc2)nc2ccccc12`, for which the outcome in the data set with Human alphaherpesvirus 1 [2] was inactive.
